Literature values, collected in patent US20050169997A1, “Method for preparing resinates” (priority 2002, published 2005).

## COc1ccc2c(c1)c(CC(=O)O)c(C)n2C(=O)c1ccc(Cl)cc1 [indomethacin]
  solubility of indomethacin in water: 14 ppm
